Measurements published in ChEMBL document CHEMBL1201862, “PubChem BioAssay data set” (2004).
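Growth conditions: 96-well plates. Treatment: test compound, 48 hours, 5 concentrations. Analysis: linear interpolation between bracketing concentrations; unreached endpoints set to highest concentration. At the GI50, growth is halved.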 Activity calls are given as the source filed them. No stated cut-off is given here; in the data, active = GI50 up to about 1.1 µM and inactive = higher.

Assays:
Test in all cases: growth of human tumour cells (NCI), 48 h
RXF 393 = test system: RXF 393
HT-29 = test system: HT-29
SK-OV-3 = test system: SK-OV-3
SF-295 = test system: SF-295
SF-539 = test system: SF-539
OVCAR-8 = test system: OVCAR-8
SN12C = test system: SN12C
SK-MEL-28 = test system: SK-MEL-28
NCI-H522 = test system: NCI-H522
NCI-H23 = test system: NCI-H23
ACHN = test system: ACHN
OVCAR-5 = test system: OVCAR-5
UACC-62 = test system: UACC-62
U-251 = test system: U-251
KM12 = test system: KM12
OVCAR-3 = test system: OVCAR-3

Measured: GI50

CCOc1ccc(NC(=O)C(=O)CC(=O)c2sc(NNC(C)=O)nc2C)cc1
inactive: RXF 393 > 100 µM | HT-29 > 100 µM | SK-OV-3 > 100 µM | SF-295 > 100 µM | SF-539 > 100 µM | OVCAR-8 > 100 µM | SN12C > 100 µM | SK-MEL-28 > 100 µM | NCI-H522 > 100 µM | NCI-H23 > 100 µM | ACHN > 100 µM | OVCAR-5 > 100 µM | UACC-62 > 100 µM | U-251 > 100 µM | KM12 > 100 µM

CCc1cccc(C(C)C)c1N1C(=O)C(=O)C(c2nc3ccccc3s2)C(=O)C1=O
inactive: RXF 393 > 50 µM | OVCAR-3 > 25.5 µM | HT-29 > 30.6 µM | SK-OV-3 > 50 µM | SF-295 > 39.4 µM | SF-539 > 50 µM | OVCAR-8 > 35.2 µM | SN12C > 50 µM | SK-MEL-28 > 50 µM | NCI-H522 17.7 µM | NCI-H23 27.9 µM | ACHN > 50 µM | OVCAR-5 > 50 µM | UACC-62 > 50 µM | U-251 > 48.3 µM | KM12 > 44.7 µM

O=C(Nc1ccc(Sc2ccc(/N=N/c3c(O)c(S(=O)(=O)O)cc4cc(S(=O)(=O)O)ccc34)cc2)cc1)c1ccc(/N=N/c2c(O)c(S(=O)(=O)O)cc3cc(S(=O)(=O)O)ccc23)cc1
inactive: RXF 393 33.1 µM | OVCAR-3 15.8 µM | HT-29 32.1 µM | SK-OV-3 > 100 µM | SF-295 22.3 µM | SF-539 45.8 µM | OVCAR-8 21 µM | SN12C 26.9 µM | SK-MEL-28 32.1 µM | NCI-H522 12.2 µM | NCI-H23 12.2 µM | ACHN 29.9 µM | OVCAR-5 47.2 µM | UACC-62 22.2 µM | U-251 35.2 µM | KM12 33 µM

O=C(N/C(=C\c1ccc(/C=C(\NC(=O)c2ccccc2)c2nc3cc([N+](=O)[O-])ccc3[nH]2)cc1)c1nc2cc([N+](=O)[O-])ccc2[nH]1)c1ccccc1
inactive: RXF 393 24 µM | OVCAR-3 39.6 µM | HT-29 30.3 µM | SK-OV-3 > 100 µM | SF-295 43.1 µM | SF-539 80.4 µM | OVCAR-8 34.9 µM | SN12C 71.3 µM | SK-MEL-28 14.8 µM | NCI-H522 11.4 µM | NCI-H23 25.4 µM | ACHN 23.2 µM | OVCAR-5 > 100 µM | UACC-62 15.4 µM | U-251 54.6 µM

CSc1nsc(-c2ccccc2)[s+]1.[O-][Cl+3]([O-])([O-])[O-]
inactive: RXF 393 > 100 µM | OVCAR-3 > 100 µM | SK-OV-3 > 100 µM | SF-539 > 100 µM | OVCAR-8 > 100 µM | SN12C > 100 µM | SK-MEL-28 > 100 µM | NCI-H522 > 100 µM | ACHN > 100 µM | UACC-62 > 100 µM | U-251 > 100 µM | KM12 > 100 µM

COc1ccc(/C(C#N)=C2/O/C(=N/N)C(c3ccc(OC)c(OC)c3)C2=O)cc1OC (centres undefined)
inactive: OVCAR-3 > 100 µM | HT-29 > 100 µM | SK-OV-3 > 100 µM | SF-295 > 100 µM | SF-539 > 100 µM | SN12C > 100 µM | SK-MEL-28 > 100 µM | NCI-H522 > 100 µM | NCI-H23 > 100 µM | ACHN > 100 µM | UACC-62 > 100 µM | U-251 > 100 µM | KM12 > 100 µM

Cc1ccc(NCCO)cc1
inactive: OVCAR-3 > 100 µM | HT-29 > 100 µM | SK-OV-3 > 100 µM | SF-295 > 100 µM | SF-539 > 100 µM | OVCAR-8 > 100 µM | SN12C > 100 µM | SK-MEL-28 > 100 µM | NCI-H522 > 100 µM | NCI-H23 > 100 µM | ACHN > 100 µM | OVCAR-5 > 100 µM | UACC-62 > 100 µM | U-251 > 100 µM | KM12 > 100 µM

Oc1ccc(C2Oc3cc(O)cc4c3C2c2cc(O)cc3c2C(c2cc(O)cc5c2C4C(c2ccc(O)cc2)O5)C(c2ccc(O)cc2)O3)cc1 (centres undefined)
inactive: OVCAR-3 7 µM | SF-539 5.58 µM | OVCAR-8 6.61 µM | SN12C 8.05 µM | SK-MEL-28 5.28 µM | NCI-H522 6.55 µM | NCI-H23 6.11 µM | ACHN > 25 µM | OVCAR-5 > 25 µM | UACC-62 > 25 µM | U-251 6.32 µM | KM12 7.4 µM

COC(=O)C(Cc1cc(OC)c(OC)c(OC)c1)C(=O)OC
inactive: RXF 393 > 320 µM | OVCAR-3 > 320 µM | HT-29 > 320 µM | SK-OV-3 > 320 µM | SF-295 > 320 µM | OVCAR-8 > 320 µM | SN12C > 320 µM | SK-MEL-28 > 320 µM | NCI-H522 > 320 µM | NCI-H23 > 320 µM | ACHN > 320 µM | OVCAR-5 > 320 µM | UACC-62 > 320 µM | U-251 > 320 µM | KM12 > 320 µM
